Key:
[1] = tested on: HO-1^+ pancreatic macrophages; assay: Staining of pancreatic macrophages (HO-1, F4/80) after hemin; assay type: in vivo, mice; conditions: intraperitoneal hemin
Procedure: FIG. 3: Hemin increases HO-1^+ pancreatic macrophages in association with MCP-1 and MIP-1α induction. (A) Pancreas from CDD-fed mice was triple-stained using antibodies to HO-1 (a), the macrophage marker F4/80 (b), and the granulocyte marker Gr-1 (c). Scale bar in panel d=20 μM. (B) Mice were treated intraperitoneally with hemin (H) or vehicle (V) once (H×1) or 3×(H×3, V×3) during a one week period, followed by feeding with CDD or regular chow for 3 d. Pancreata were collected followed by staining and counting F4/80^+ macrophages in 10 randomly selected high power fields (HPF). The mean±SD (3 mice/group) and p-value for the indicated comparisons are shown. […]
Animal procedures. […] Immunofluorescence staining was performed as described (29) and images were analyzed using confocal microscopy. Total tissue lysates were prepared by homogenization in Laemmli sample buffer and analyzed by SDS-PAGE followed by transfer to membranes for blotting and protein visualization by enhanced chemiluminescence. Trypsin activity was determined using a fluorimetric assay and the substrate Boc-Gln-Ala-Arg-MCA (Peptides International Inc.; Louisville, Ky.), and comparison to a standard curve generated with purified trypsin as described. […] Lung injury after caerulein administration was assessed as previously described, based on neutrophilic infiltration, pulmonary edema, alveolar distension and collapse. […]

CDD-induced pancreatitis = assay: Choline deficient diet (CDD)-induced pancreatitis after hemin pretreatment
Procedure: (D-F) Mice were injected with saline, hemin, or vehicle (8 mice/group)3×(arrows) followed by feeding with CDD for 3 d then harvesting of the pancreata.
Balb/c mice were housed under pathogen-free conditions and utilized in two established models of pancreatitis. […] For the pancreatitis induced by feeding a choline/methionine-deficient diet (CDD), young female mice (15-19 g) were fasted then fed CDD (Harlan Teklad; Madison Wis.) supplemented with 0.5% DL-ethionine (Sigma; St. Louis, Mo.) or normal chow (control group) for 3 d, then switched to normal diet for 1, 2 or 5 d.
Animal procedures. Mice were euthanized by CO2 inhalation then pancreata and lungs were rapidly removed, divided into 3-4 pieces, and blood was collected by intracardiac puncture. Individual lung and pancreas fragments were immediately fixed in 10% formalin, embedded in OCT (Miles; Elkhart, Ind.) or snap-frozen in liquid N2 for subsequent protein, enzyme, and RNA analysis. […] Fixed tissues were sectioned then stained using hematoxylin and eosin (performed by Histo-tec Laboratory; Hayward, Calif.).

For Hemin, the “HO-1^+ pancreatic macrophages” value [1] was “increases”, the pancreatic injury (CDD-induced pancreatitis; figure title) was “inhibition of pancreatic injury” and the “pancreas histology (edema, necrosis)” value (CDD-induced pancreatitis; hematoxylin and eosin, mice that survived CDD feeding) was “marked pancreas edema (E) and necrosis (N) in the saline (not shown) and vehicle injected mice, as compared with the “hemin” group”. For the same substance, the survival (CDD-induced pancreatitis; hemin 3× then CDD 3 d, 8 mice/group, p<0.03 vs controls (saline+vehicle)) was “survival difference was significant”.
